From US20250025440A1, “COMPOSITIONS AND METHODS FOR MANAGEMENT OF HUMAN PAPILLOMA VIRUS-ASSOCIATED CANCERS” (LOMA LINDA UNIVERSITY, priority 2021, published 2025)
Entries after “also recorded” stand apart in the source; their conditions may differ.

Experiments:
Assay type in all cases: cell-based
[1] = system: HPV+ (SCC47, SCC090, SCC104, SCC152) and HPV- (SCC19, SCC29, SCC49, SCC84) HNSCC cell lines; assay: MTT cell viability, HNSCC panel
Method: While SAR studies using the SCC104 cell line provided evidence of the activity of the analogs, further studies were conducted to assess not just the potency, but also the selectivity. As a step towards that goal, the efficacy of GA-OH was evaluated in a panel containing both HPV^+ and HPV^− HNSCC cell lines using MTT cell viability assays. Four HPV^+ cell lines (SCC47, SCC090, SCC104, SCC152) and four HPV^− cell lines (SCC19, SCC29, SCC49, SCC84) were utilized. GA-OH behaved dose dependently in cell lines both with or without HPV. […] FIGS. 7A-7C are graphical representations of the sensitivity of HPV^+ cell lines and HPV^− cell lines to GA-OH-mediated growth inhibition. FIG. 7A is a graphical representation of the cell growth inhibition of HNSCC HPV^+ and HPV^− cell lines by GA-OH (+ and closed shapes represent HPV^+ cell lines and − and open shapes the HPV^− cell lines). […] These cells were good controls, as HPV is an established causative agent in CC carcinogenesis. Two HPV^+ cell lines, SiHa and CaSki were selected as the positive controls and the Saos-2 cell line was used as an HPV-negative control. […] FIG. 7B is a graphical representation of the cell growth inhibition of cervical cancer HPV^+ and HPV^− cell lines by GA-OH. HPV^+ cell lines display higher sensitivity than do HPV^− cell lines as shown by the leftwards shift of the HPV^+ curves (SCC47, 90, 104, 152 in FIG. 7A and SiHa and CaSki in FIG. 7B).
All working concentrations were diluted in PBS to the desired concentration before use. To test the effect of gambogic acid and/or its derivatives on cell viability, all cell lines were seeded at 2×10^4 per well in 96-well plates and allowed to adhere overnight. Various concentrations of the analogues were added and the cells incubated at 37° C. for 24 hr. Viability was then measured using the MTT assay, performed as described previously. […] Cell viability and potency were assessed from % inhibition relative to the vehicle control, and IC50 dose curves were generated using GraphPad Prism.

SCC19 (HPV-) = assay: Colony formation assay; details: SCC19, treated 24 hours
Method: (§1) For assessing the long-term effects on the survival of cells following GA-OH treatment, the colony formation assay (CFA) was performed. Two cell lines, SCC19 (HPV^−) and SCC104 (HPV^+) were used for this study. The cells were treated for 24 hours with GA-OH, and then seeded for assessment of colony formation. Cell survival data from this study mirrored the impact of GA-OH on cell viability of HPV^+ and HPV^− cell lines. […] FIG. 7C is a graphical representation of the effects of GA-OH on the clonogenicity of the surviving fractions of HPV^+ versus HPV^− cell lines.
(§2) Sub-confluent monolayer cells were treated with different doses of GA-OH for 24 hours. Cells were trypsinized and re-suspended before re-plating into 6 well plates in DMEM or MEM at 500-1000 cell densities, depending on the cell line. Cells were then allowed to grow for 10-20 days, depending on the cell line, before fixing and staining. A mixture of methanol/acetic acid was used for fixing, followed by 0.5% crystal violet staining. Plates were imaged using UV imager, and colonies with more than […] counted using image J. Surviving fractions were determined by dividing the number of colonies by the number of cells seeded as a product of the corresponding plating efficiency. Survival fractions curves were plotted using GraphPad Prism.

SCC104 (HPV+) = assay: Colony formation assay; details: SCC104, treated 24 hours
Method: as §1, §2

[2] = system: HPV- (SCC19, SCC29) and HPV+ (SCC47, SCC104, SCC152) HNSCC cell lines; assay: Sensitization of HNSCC cell lines to photon radiation; details: radiation 0-4Gy followed by inhibitor; DER10
Method: The dose enhancement ratio for 10% survival (DER10) was calculated as follows: DER10=(Dose correlated with 10% survival fraction in radiation-treated cells)/(Dose correlated with 10% survival fraction in radiation and inhibitor treated cells).
CCDP, Cetuximab, and GA-OH were evaluated for their ability to sensitize HNSCC cell lines to photon radiation.
Colonies were counted after 14-21 days and normalized to vehicle control and survival analysis was performed.
Sensitization of an additional HPV^+ cell line to radiation by CDDP, Cetuximab and GA-OH was evaluated.

[3] = system: SCC104 (HPV+ HNSCC cell line); assay: MTT cell viability of gambogic acid analogs; details: SCC104, 24 hr
Method: Next, the analogs were evaluated for functional activity using the HPV^+ HNSCC cell line, SCC104, in the MTT assay as described previously to determine whether similar findings would be observed as in the in vitro AlphaScreen™ analysis. With one exception, the patterns were similar to the AlphaScreen™ data, but the differences were relatively more pronounced in the cell-based screen (FIG. 6B). […] Based on these findings, 30-hydroxygambogic acid (GA-OH) was selected as a candidate for more extensive functional studies.
Using the SciFinder and Zinc15 databases, several gambogic acid structural analogs were identified and selected. The 8 analogs were obtained as follow: gambogenic amide (Enzo Life Sciences), gambogenic acid (Selleckchem), morellic acid (Aobious), 30-hydroxy gambogic acid (Quality Phytochemicals, LLC), acetyl gambogic acid (Microsource), and gambogin, neogambogic acid and isomorellinol (MolPort Natural Products). Additional gambogic acid was purchased from Tocris. The interactions of the analogues with E6-caspase 8 was tested using AlphaScreen™ technology using the same protocol as with the primary screen, and were compared to the parent compound. The effect on cell viability was also similarly done in HPV^+ and HPV^− cell lines via the MTT assay (see below) and potency was determined using GraphPad IC50 curve fitting.
All working concentrations were diluted in PBS to the desired concentration before use. To test the effect of gambogic acid and/or its derivatives on cell viability, all cell lines were seeded at 2×10^4 per well in 96-well plates and allowed to adhere overnight. Various concentrations of the analogues were added and the cells incubated at 37° C. for 24 hr. Viability was then measured using the MTT assay, performed as described previously. All experiments were repeated at least three times (three biological replicates, carried out on different days). Data presented are from a representative experiment. Cell viability and potency were assessed from % inhibition relative to the vehicle control, and IC50 dose curves were generated using GraphPad Prism.

SCC47 and SCC19 = assay: Apoptosis analysis after irradiation (flow cytometry)
Method: Kinetics of G2-M arrest when SCC47 and SCC19 are irradiated with or without GA-OH. Cells were treated with radiation (4Gy) followed by GA-OH before cell cycle analysis was performed using […] flow cytometry assay after 24 hours. FIGS. 17A-17B are graphical representations of the kinetics of G2-M arrest when SCC47 and SCC19 are irradiated and followed by treatment with control or with GA-OH, as measured by flow cytometry assays after 24 hours. Cells are arrested to the same extent in the short term (first 12 hours) but over extended periods, SCC19 cells exit the G2-M stage quicker. In the HPV^+ but not HPV^− line, the addition of GA-OH to the radiation protocol delays the exit from the exit the G2-M stage at 24 hours as compared to radiation alone. Apoptosis analysis of SCC47 and SCC19 was performed after irradiation and followed by treatment with control or with GA-OH, as measured by flow cytometry assays after 24 hours. FIGS. 18A-18B are graphical representations of the apoptotic analysis of SCC47 and SCC19 after irradiation with or without GA-OH after 24 hours, as measured by flow cytometry assays. Radiation induces minimal apoptosis on its own.

30-hydroxygambogic acid [GA-OH]
potency and selectivity for HPV+ versus HPV- cells [1]: more potent and selective | cell growth inhibition, sensitivity of HPV+ versus HPV- cell lines ([1]; MTT): displayed higher sensitivity | number of colonies (SCC19 (HPV-)): did not exhibit significant reduction relative to their control except at high concentrations | number of colonies (SCC104 (HPV+)): significantly and dose-dependently reduced | sensitization to photon radiation [2]: most sensitization in HPV+ cell lines; also recorded: less than that of CDDP but greater than cetuximab | potency in MTT assay [3]: highest potency of all analogs | apoptosis, agent alone (SCC47 and SCC19; 24 hours): appreciable apoptosis | apoptosis, combination with radiation (SCC47 and SCC19; SCC47 compared to SCC19, 24 hours): greater apoptosis and at a greater rate
